The source of these data is ChEMBL document CHEMBL3046430, “Synthesis of some new 3,5-diamino-4-(4-fluorophenylazo)-1-aryl/heteroarylpyrazoles as antimicrobial agents” (2013).

Converted amounts (≈) assume the structure as drawn. The source made the active and inactive calls. The rule behind the calls is not given here.

Holding throughout (type): functional
Test [1] deals with Saccharomyces cerevisiae. The experiment in a line: Antifungal activity against Saccharomyces cerevisiae after 7 days by agar well diffusion method. For orientation: A growth-free zone around the sample is the usual read-out of agar diffusion tests.
For test [2], the system named is Aspergillus niger. The experiment in a line: Antifungal activity against Aspergillus niger after 7 days by agar well diffusion method.
Test [3] deals with Candida albicans. Briefly: Antifungal activity against Candida albicans after 7 days by agar well diffusion method.
In test [4] the test system is Escherichia coli. The experiment in a line: Antibacterial activity against Escherichia coli after 24 hr by agar well diffusion method.
Test [5] deals with Klebsiella aerogenes. Briefly: Antibacterial activity against Enterobacter aerogenes after 24 hr by agar well diffusion method.
Test [6] concerns Bacillus subtilis. The experiment in a line: Antibacterial activity against Bacillus subtilis after 24 hr by agar well diffusion method.
The subject of test [7] is Staphylococcus aureus. Briefly: Antibacterial activity against Staphylococcus aureus after 24 hr by agar well diffusion method.
Test [8] concerns Saccharomyces cerevisiae. Briefly: Antifungal activity against Saccharomyces cerevisiae at 2 to 64 ug/ml after 7 days by agar well diffusion method.
Test [9] relates to Aspergillus niger. The experiment in a line: Antifungal activity against Aspergillus niger at 2 to 64 ug/ml after 7 days by agar well diffusion method.
For test [10], the system named is Candida albicans. Briefly: Antifungal activity against Candida albicans at 2 to 64 ug/ml after 7 days by agar well diffusion method.
Test [11] has as its system Escherichia coli. The experiment in a line: Antibacterial activity against Escherichia coli at 2 to 64 ug/ml after 24 hr by agar well diffusion method.
In test [12] the test system is Klebsiella aerogenes. Briefly: Antibacterial activity against Enterobacter aerogenes at 2 to 64 ug/ml after 24 hr by agar well diffusion method.
In test [13] the test system is Bacillus subtilis. The experiment in a line: Antibacterial activity against Bacillus subtilis at 2 to 64 ug/ml after 24 hr by agar well diffusion method.
Test [14] concerns Staphylococcus aureus. Briefly: Antibacterial activity against Staphylococcus aureus at 2 to 64 ug/ml after 24 hr by agar well diffusion method.

A word on the MIC: it is the lowest concentration that inhibits growth of the organism. As to `Nc1nn(-c2ccccc2)c(N)c1/N=N/c1ccc(F)cc1`, the minimal inhibitory concentration (MIC) with Saccharomyces cerevisiae [1] (168 h) was found to be 4 µg/mL (≈ 13.5 µM); in the test on Candida albicans [3] (168 h), 2 µg/mL (≈ 6.75 µM); with Escherichia coli [4], 2 µg/mL (≈ 6.75 µM); against Klebsiella aerogenes [5] it was 32 µg/mL (≈ 108 µM); with Bacillus subtilis [6], 8 µg/mL (≈ 27 µM). Moreover, the MIC entry in the test with Aspergillus niger [2] and with Staphylococcus aureus [7] was “inactive” throughout. In addition, the “diameter of the inhibition zone (DIZ)” value in the test on Saccharomyces cerevisiae [8] was determined as 12 mm; with Candida albicans [10] it was 7 mm; in the test on Escherichia coli [11], 12 mm; in the test with Klebsiella aerogenes [12], 12 mm; in the test on Bacillus subtilis [13], 10 mm. Besides, the result in the test with Aspergillus niger [9] and with Staphylococcus aureus [14] was inactive.
Consider `Nc1nn(-c2ccc(Cl)cc2)c(N)c1/N=N/c1ccc(F)cc1`, for which the MIC result with Saccharomyces cerevisiae [1], in the test with Aspergillus niger [2], in the test with Escherichia coli [4], in the test with Bacillus subtilis [6] and with Staphylococcus aureus [7] was “inactive” throughout. Further, the MIC against Candida albicans [3] (168 h) and with Klebsiella aerogenes [5] was 2 µg/mL (≈ 6.05 µM) throughout. The result in the test on Saccharomyces cerevisiae [8], with Aspergillus niger [9], in the test with Escherichia coli [11], in the test on Bacillus subtilis [13] and in the test with Staphylococcus aureus [14] was inactive. Further, the figures for the “diameter of the inhibition zone (DIZ)” value in the test with Candida albicans [10] and in the test on Klebsiella aerogenes [12] were 9 mm and 12 mm, respectively.
On to `OC(Cn1cncn1)(Cn1cncn1)c1ccc(F)cc1F` [FLUCONAZOLE], for which the MIC against Saccharomyces cerevisiae [1] (168 h) amounted to 4 µg/mL (≈ 13.1 µM); in the test with Aspergillus niger [2] (168 h), 2 µg/mL (≈ 6.53 µM); with Candida albicans [3] (168 h), 2 µg/mL (≈ 6.53 µM). In addition, the MIC result with Escherichia coli [4], with Klebsiella aerogenes [5], with Bacillus subtilis [6] and in the test on Staphylococcus aureus [7] was “inactive” throughout. Further, the “diameter of the inhibition zone (DIZ)” value in the test with Saccharomyces cerevisiae [8] is 12 mm; with Aspergillus niger [9] it was 13 mm; in the test on Candida albicans [10], 10 mm. Also, the result in the test on Escherichia coli [11], in the test with Klebsiella aerogenes [12], with Bacillus subtilis [13] and in the test on Staphylococcus aureus [14] was inactive.
As to `C=CC1=C(C(=O)O)N2C(=O)[C@@H](NC(=O)/C(=N\OCC(=O)O)c3csc(N)n3)[C@H]2SC1` [CEFIXIME], the MIC entry with Saccharomyces cerevisiae [1], in the test on Aspergillus niger [2] and in the test on Candida albicans [3] was “inactive” in each case. In addition, the MIC against Escherichia coli [4] worked out at 2 µg/mL (≈ 4.41 µM); against Klebsiella aerogenes [5], 2 µg/mL (≈ 4.41 µM); against Bacillus subtilis [6], 4 µg/mL (≈ 8.82 µM); in the test with Staphylococcus aureus [7], 2 µg/mL (≈ 4.41 µM). The outcome with Saccharomyces cerevisiae [8], in the test on Aspergillus niger [9] and in the test on Candida albicans [10] was inactive. Also, the “diameter of the inhibition zone (DIZ)” value in the test with Escherichia coli [11] stood at 14 mm; in the test with Klebsiella aerogenes [12], 15 mm; in the test on Bacillus subtilis [13], 2.8 mm; in the test with Staphylococcus aureus [14], 2.9 mm.
On to `Nc1nn(-c2nc3ccc(F)cc3s2)c(N)c1/N=N/c1ccc(F)cc1`, for which the MIC result in the test on Saccharomyces cerevisiae [1], with Candida albicans [3], in the test with Escherichia coli [4] and with Staphylococcus aureus [7] was “inactive” in each case. Besides, the MIC in the test on Aspergillus niger [2] (168 h) is 2 µg/mL (≈ 5.39 µM); against Klebsiella aerogenes [5], 4 µg/mL (≈ 10.8 µM); against Bacillus subtilis [6] it was 4 µg/mL (≈ 10.8 µM). Besides, the outcome with Saccharomyces cerevisiae [8], in the test on Candida albicans [10], in the test on Escherichia coli [11] and with Staphylococcus aureus [14] was inactive. Also, the “diameter of the inhibition zone (DIZ)” value worked out at 14 mm with Aspergillus niger [9], 11 mm in the test on Klebsiella aerogenes [12] and 12 mm with Bacillus subtilis [13].
Regarding `Cc1cc(C)nc(-n2nc(N)c(/N=N/c3ccc(F)cc3)c2N)n1`, the minimum inhibitory concentration (MIC) was 8 µg/mL (≈ 24.5 µM) in the test with Saccharomyces cerevisiae [1] (168 h), 2 µg/mL (≈ 6.13 µM) against Candida albicans [3] (168 h), 8 µg/mL (≈ 24.5 µM) with Klebsiella aerogenes [5] and 16 µg/mL (≈ 49 µM) against Staphylococcus aureus [7]. In addition, the MIC result with Aspergillus niger [2], with Escherichia coli [4] and in the test with Bacillus subtilis [6] was “inactive” in each case. Further, the “diameter of the inhibition zone (DIZ)” value is 10 mm in the test on Saccharomyces cerevisiae [8], 9 mm in the test on Candida albicans [10], 9 mm with Klebsiella aerogenes [12] and 4.5 mm in the test with Staphylococcus aureus [14]. Moreover, the outcome in the test with Aspergillus niger [9], with Escherichia coli [11] and in the test with Bacillus subtilis [13] was inactive.
On to `Nc1nn(-c2nc3ccc(Cl)cc3s2)c(N)c1/N=N/c1ccc(F)cc1`, for which the MIC entry in the test with Saccharomyces cerevisiae [1], with Aspergillus niger [2], with Escherichia coli [4], in the test on Bacillus subtilis [6] and with Staphylococcus aureus [7] was “inactive” in each case. Also, the MIC with Candida albicans [3] (168 h) and in the test on Klebsiella aerogenes [5] was 2 µg/mL (≈ 5.16 µM) in each case. Moreover, the outcome with Saccharomyces cerevisiae [8], with Aspergillus niger [9], in the test with Escherichia coli [11], in the test on Bacillus subtilis [13] and in the test with Staphylococcus aureus [14] was inactive. For the same compound, the “diameter of the inhibition zone (DIZ)” value in the test on Candida albicans [10] is reported as 12 mm; in the test with Klebsiella aerogenes [12] it was 10 mm.
For `Nc1nn(-c2ccc([N+](=O)[O-])cc2[N+](=O)[O-])c(N)c1/N=N/c1ccc(F)cc1`, the MIC against Saccharomyces cerevisiae [1] (168 h) came out at 8 µg/mL (≈ 20.7 µM); against Aspergillus niger [2] (168 h), 2 µg/mL (≈ 5.18 µM); with Candida albicans [3] (168 h), 2 µg/mL (≈ 5.18 µM); with Escherichia coli [4], 2 µg/mL (≈ 5.18 µM); with Klebsiella aerogenes [5] it was 2 µg/mL (≈ 5.18 µM); in the test on Bacillus subtilis [6], 4 µg/mL (≈ 10.4 µM). In the test with Staphylococcus aureus [7], the MIC result is “inactive”. Moreover, the “diameter of the inhibition zone (DIZ)” value amounted to 12 mm with Saccharomyces cerevisiae [8]; 10 mm in the test with Aspergillus niger [9]; 11 mm in the test with Candida albicans [10]; 13 mm in the test with Escherichia coli [11]; 13 mm in the test on Klebsiella aerogenes [12]; 10 mm in the test with Bacillus subtilis [13]. The outcome with Staphylococcus aureus [14] was inactive.
In the case of `Cc1cc(-n2nc(N)c(/N=N/c3ccc(F)cc3)c2N)nc2ccccc12`, the MIC entry in the test with Saccharomyces cerevisiae [1] and in the test on Aspergillus niger [2] was “inactive” each time. Further, the minimum inhibitory concentration (MIC) against Candida albicans [3] (168 h) came to 64 µg/mL (≈ 177 µM); against Escherichia coli [4] it was 2 µg/mL (≈ 5.53 µM); against Klebsiella aerogenes [5], 8 µg/mL (≈ 22.1 µM); with Bacillus subtilis [6], 4 µg/mL (≈ 11.1 µM); with Staphylococcus aureus [7], 2 µg/mL (≈ 5.53 µM). Further, the outcome in the test with Saccharomyces cerevisiae [8] and in the test with Aspergillus niger [9] was inactive. Further, the “diameter of the inhibition zone (DIZ)” value turned out to be 10 mm in the test on Candida albicans [10]; 15 mm in the test on Escherichia coli [11]; 15 mm with Klebsiella aerogenes [12]; 12 mm in the test with Bacillus subtilis [13]; 2.6 mm in the test on Staphylococcus aureus [14].
`Cc1ccc2nc(-n3nc(N)c(/N=N/c4ccc(F)cc4)c3N)sc2c1`: the MIC entry in the test with Saccharomyces cerevisiae [1], with Aspergillus niger [2], in the test on Escherichia coli [4], with Bacillus subtilis [6] and with Staphylococcus aureus [7] was “inactive” throughout. Also, the MIC against Candida albicans [3] (168 h) and against Klebsiella aerogenes [5] was 2 µg/mL (≈ 5.44 µM) each time. In addition, the result with Saccharomyces cerevisiae [8], in the test with Aspergillus niger [9], with Escherichia coli [11], in the test with Bacillus subtilis [13] and in the test with Staphylococcus aureus [14] was inactive. Moreover, the “diameter of the inhibition zone (DIZ)” value in the test on Candida albicans [10] is recorded as 11 mm; with Klebsiella aerogenes [12] it was 10.5 mm.
Regarding `Nc1nn(-c2nc3ccccc3s2)c(N)c1/N=N/c1ccc(F)cc1`, the minimal inhibitory concentration (MIC) amounted to 6 µg/mL (≈ 17 µM) with Saccharomyces cerevisiae [1] (168 h); 2 µg/mL (≈ 5.66 µM) in the test on Candida albicans [3] (168 h); 8 µg/mL (≈ 22.6 µM) against Escherichia coli [4]; 2 µg/mL (≈ 5.66 µM) against Klebsiella aerogenes [5]; 6 µg/mL (≈ 17 µM) with Bacillus subtilis [6]. The MIC entry in the test with Aspergillus niger [2] and in the test with Staphylococcus aureus [7] was “inactive” throughout. In addition, the “diameter of the inhibition zone (DIZ)” value with Saccharomyces cerevisiae [8] is reported as 9 mm; with Candida albicans [10], 12 mm; with Escherichia coli [11] it was 12 mm; in the test with Klebsiella aerogenes [12], 14 mm; with Bacillus subtilis [13], 9 mm. Further, the outcome with Aspergillus niger [9] and with Staphylococcus aureus [14] was inactive.
